According to patent US6544533B2, “10-hydroxy-2-decenoic acid compounds for promoting desquamation/epidermal renewal of the skin and/or combating skin aging” (Societe L'Oreal S.A., priority 1998, dated 2003):

System: differentiated human keratinocytes
Test: in vitro screening of desquamating activity: release of corneocytes (cellular detachment index) counted by flow cytometry
Type: cell-based
Details: compounds at 5·10^−5 M, 60 minutes after addition
Description: This test of in vitro screening of an agent which is active with regard to desquamation was carried out on differentiated human keratinocytes. The principle of the test is based on the fact that desquamation induces the release of corneocytes. The desquamating power of the test product increases as the number of corneocytes released increases.
The protocol of the test was as follows: beginning with biopsies of human skin, the keratinocytes obtained by separation from the epidermis were dissociated by enzymatic action with trypsin and were cultured at a concentration of 2·10^5 cell/ml. The growth and differentiation of the keratinocytes was obtained by culturing for 10 to 20 days in a specific medium. The activity of the test product was then evaluated after removal of the culture medium. To accomplish this, two samples were taken at T0 and T60, namely, before the addition of the test product and 60 minutes after this addition. The samples thus taken were analyzed with a flow cytometer in order to count the population of corneocytes. The flow cytometer made it possible to distinguish the populations of corneocytes and of keratinocytes by treatment with acridine orange, which is specific for cellular DNA.
The cellular detachment index was determined by the difference between T60 and T0. The same measurement was carried out for a control not comprising test product, because the experiment inevitably produces the release of corneocytes, even in the absence of active principles.
The test was carried out with compounds at a concentration of 5·10^−5M.

For `COCCOCOCC(COC(=O)/C=C/CCCCCCCO)OC(=O)/C=C/CCCCCCCO` (stereo not drawn) [3-[(2-methoxyethoxy)methoxy]propyl 1,2-di(10-hydroxydec-2-enoate)], the “% of activity with respect to the control composed of an identical culture in the absence of compound (cellular detachment index, T60 minus T0)” value was 124.16%.
In the case of `O=C(/C=C/CCCCCCCO)OCC(COC(=O)/C=C/CCCCCCCO)OC(=O)/C=C/CCCCCCCO` [Propyl 1,2,3-tri(10-hydroxydec-2-enoate), propyl 1,2,3-tri(10-hydroxydec-2-enoate)], the “% of activity with respect to the control composed of an identical culture in the absence of compound (cellular detachment index, T60 minus T0)” value is reported as 148.52%.
`CCCCCCCC(=O)c1ccc(O)c(C(=O)O)c1` [Reference, 2-Hydroxy-5-octanoylbenzoic acid, reference compound] was tested, and the “% of activity with respect to the control composed of an identical culture in the absence of compound (cellular detachment index, T60 minus T0)” value was 91.95%.
